Test results from article PMC10584170, “Machine learning-based phenotypic imaging to characterise the targetable biology of Plasmodium falciparum male gametocytes for the development of transmission-blocking antimalarials” (PLOS Pathogens, 2023).
Where two headings read alike, the source gives them in different places.

What was measured:
[1] = tested on: P. falciparum male gametocytes; test: P. falciparum Dual Gamete Formation Assay (PfDGFA), male readout (exflagellation); type: cell-based, Plasmodium falciparum NF54; details: for inhibition at 2 µM: 24h preincubation with gametocytes; for HitlevelM: hits selected on >50% inhibition in the male readout across replicates; for Activity: hit = >50% inhibition in male or female readout in at least 3 replicates, 0 = no class assigned
Description: (§1) P. falciparum NF54 (originally isolated from an imported malaria case in the Netherlands in the 1980s; BEI Resources, cat. No. MRA-1000) strain asexual parasites were maintained between 0.3–5% parasitaemia by regular passage in complete culture medium (RPMI supplemented with 25 mM HEPES, 50 μg ml^−1 hypoxanthine, 4.8 g l^−1 NaHCO3, 2mM L-glutamine, 5% pooled type AB serum, 0.5% Albumax II (Gibco)) at 4% haematocrit in washed whole blood (National Blood and Transfusion Service or Centro de Transfusiones de la Comunidad de Madrid CTCM) under a 1% O2/3% CO2/96% N2 environment. Gametocytes were induced by seeding culture flasks at 2% parasitaemia/4% haematocrit and subjecting them to daily medium changes for 14 days whilst maintaining a temperature of 37°C at all times. On Day 14, the maturity of gametocytes was assessed by quantifying male gametogenesis (exflagellation). A 20 μl sample of gametocyte culture was mixed with equal volume of ookinete medium (complete culture medium supplemented with 0.1 μM xanthurenic acid) at room temperature and transferred to a haemocytometer. After 20 min at room temperature, exflagellation was accurately quantified as described in Delves et al. 2016 [17].
(§2) The Pf DGFA was performed as described in Delves et al. 2016 [17]. […] Plates were then incubated for 24 h at 37°C in a humidified box under a 1% O2/3% CO2/96% N2 gas mix. Gametogenesis was triggered by addition of 10 μl per well of ookinete medium + 0.27 μg ml^-1 Cy3-labelled anti-Pfs25 antibody. Plates were incubated on a metal block at 4°C for 4 min to ensure even cooling, then 28°C for a further 4 min. Exflagellation was recorded by capturing 10 frames over 1 s under brightfield illumination using a x4 objective with a 1.5x zoom (effectively x6) attached to an automated Nikon Ti fluorescence microscope. After recording exflagellation, plates were incubated for a further 24 h in the dark at 28°C to ensure maximal expression of Pfs25 by female gametes. The plates were then returned to the microscope and female gametes imaged at x6 using fluorescence microscopy.
(§3) Exflagellation centres and female gametes were quantified using custom image analysis pipelines developed within ICY Bioimage Analysis (https://icy.bioimageanalysis.org/).

[2] = tested on: P. falciparum female gametocytes; test: P. falciparum Dual Gamete Formation Assay (PfDGFA), female readout (Pfs25-positive female gametes); type: cell-based, Plasmodium falciparum NF54; details: for inhibition at 2 µM: 24h preincubation with gametocytes; for HitlevelF: hits selected on >50% inhibition in the female readout across replicates
Description: as §1, §2, §3

[3] = 2µM, 24h preincubation with gametocytes prior to induction of gametogenesis, average of replicates
[4] = 2µM, 24h preincubation with gametocytes prior to induction of gametogenesis, replicate R1
[5] = 2µM, 24h preincubation with gametocytes prior to induction of gametogenesis, replicate R3
[6] = 2µM, 24h preincubation with gametocytes prior to induction of gametogenesis, replicate R4
[7] = PfDGFA at 2µM, 24h preincubation
[8] = PfDGFA at 2µM, 24h preincubation with gametocytes prior to induction of gametogenesis, replicate R1
[9] = PfDGFA at 2µM, 24h preincubation with gametocytes prior to induction of gametogenesis, replicate R4
[10] = PfDGFA at 2µM, 24h preincubation, average of replicates
[11] = PfDGFA at 2µM, 24h preincubation with gametocytes prior to induction of gametogenesis, replicate R3

| Structure (SMILES) | Average inhibition male (%) [1, 3] [%] | % inhibition male (individual replicates) R1 [1, 4] [%] | % inhibition male (individual replicates) R3 [1, 5] [%] | % inhibition male (individual replicates) R4 [1, 6] [%] | HitlevelM ([1]; 2µM, 24h preincubation) | Activity [1, 7] | Average inhibition female (%) [2, 3] [%] | % inhibition female (individual replicates) R1 [2, 4] [%] | % inhibition female (individual replicates) R3 [2, 5] [%] | % inhibition female (individual replicates) R4 [2, 6] [%] | HitlevelF ([2]; 2µM, 24h preincubation) | % inhibition male (individual replicates) R1 [1, 8] [%] | % inhibition male (individual replicates) R4 [1, 9] [%] | Average inhibition male (%) [1, 10] [%] | % inhibition female (individual replicates) R1 [2, 8] [%] | % inhibition female (individual replicates) R3 [2, 11] [%] | % inhibition female (individual replicates) R4 [2, 9] [%] | Average inhibition female (%) [2, 10] [%] | also measured |
| --- | --- | --- | --- | --- | --- | --- | --- | --- | --- | --- | --- | --- | --- | --- | --- | --- | --- | --- | --- |
| FC(F)(F)c1cccc(NC(=S)NN=Cc2ccccn2)c1 [TCMDC-123509] | – | – | – | – | – | – | – | – | – | – | – | – | – | – | – | – | – | – | Selectivity Ratio M ([1]; HepG2 Tox50 versus male IC50): 143.09; inhibition at 2 µM ([1]; Plasmodium falciparum, 2µM, average of replicates, read-out: Average inhibition male (%)): 94.6%; inhibition at 2 µM ([1]; Plasmodium falciparum, 2µM, replicate R1, read-out: % inhibition male (individual replicates) R1): 103%; inhibition at 2 µM ([1]; Plasmodium falciparum, 2µM, replicate R2, read-out: % inhibition male (individual replicates) R2): 94.6%; inhibition at 2 µM ([1]; Plasmodium falciparum, 2µM, replicate R3, read-out: % inhibition male (individual replicates) R3): 102%; inhibition at 2 µM ([1]; Plasmodium falciparum, 2µM, replicate R4, read-out: % inhibition male (individual replicates) R4): 79.6%; IC50 ([1]; Plasmodium falciparum, PfDGFA, 24 h incubation with gametocytes before induction, exflagellation readout, read-out: Male IC50): 700 nM; Selectivity ratio F ([2]; HepG2 Tox50 versus female IC50): 142.25; inhibition at 2 µM ([2]; Plasmodium falciparum, 2µM, average of replicates, read-out: Average inhibition female (%)): 50.5%; inhibition at 2 µM ([2]; Plasmodium falciparum, 2µM, replicate R1, read-out: % inhibition female (individual replicates) R1): 35.3%; inhibition at 2 µM ([2]; Plasmodium falciparum, 2µM, replicate R2, read-out: % inhibition female (individual replicates) R2): 76.8%; inhibition at 2 µM ([2]; Plasmodium falciparum, 2µM, replicate R3, read-out: % inhibition female (individual replicates) R3): 45%; inhibition at 2 µM ([2]; Plasmodium falciparum, 2µM, replicate R4, read-out: % inhibition female (individual replicates) R4): 45%; IC50 ([2]; Plasmodium falciparum, PfDGFA, 24 h incubation with gametocytes before induction, female gamete readout, read-out: Female IC50): 700 nM |
| CC1(C)N=C(N)N=C(N)N1c1ccc(Oc2ccc(Cl)cc2)c(Cl)c1 [TCMDC-123522] | -4.1 | 6.1 | -10.9 | -16.5 | 0 | 0 | 4.9 | 11.0 | 16.4 | -0.18 | 0 | – | – | – | – | – | – | – | – |
| Cc1cc(N2CCN(C)CC2)nc2ccc(NC(=O)Cc3cccc(C(F)(F)F)c3)cc12 [TCMDC-123590] | – | – | – | – | – | – | – | – | – | – | – | 6.9 | -7.6 | 3.5 | 1.4 | 3.7 | -0.7 | 2.2 | – |
| Cc1ccc(-c2nc3cc(NC(=O)c4ccc([N+](=O)[O-])o4)ccc3o2)cc1Cl [TCMDC-123657] | 5.4 | 3.2 | -3.8 | 12.9 | 0 | 0 | 15.9 | 10.9 | 11.0 | 33.8 | 0 | – | – | – | – | – | – | – | – |
| CC(=O)c1cccc(S(=O)(=O)NCCCNc2nc3cc(C)cc(C)c3cc2C#N)c1 [TCMDC-123734] | -13.5 | -6.4 | -3.8 | -42.5 | 0 | 0 | 6.2 | 1.3 | -13.6 | 33.9 | 0 | – | – | – | – | – | – | – | – |
| COc1ccc(C2CC(c3cccs3)=NN2C(=O)c2ccccc2)cc1OC (centres unmarked) [TCMDC-123755] | – | – | – | – | – | – | – | – | – | – | – | -16.5 | 27.6 | 0.438 | 2.3 | -20.6 | -7.2 | -3.5 | % inhibition male (individual replicates) R3 [1, 11]: -10.3% |
